Measured values published in ChEMBL document CHEMBL1149245 (J Med Chem, 2004).
Calls of active or inactive are those of the source. No cut-off for these calls is given here.

What was measured:
[1] = target: T1, Alpha-2C adrenergic receptor (Homo sapiens, UniProt P18825); assay: Displacement of [3H]RX821002 from human adrenergic Alpha-2C receptor expressed in CHO cells; assay type: cell-based
T1 sequence (P18825 whole entry): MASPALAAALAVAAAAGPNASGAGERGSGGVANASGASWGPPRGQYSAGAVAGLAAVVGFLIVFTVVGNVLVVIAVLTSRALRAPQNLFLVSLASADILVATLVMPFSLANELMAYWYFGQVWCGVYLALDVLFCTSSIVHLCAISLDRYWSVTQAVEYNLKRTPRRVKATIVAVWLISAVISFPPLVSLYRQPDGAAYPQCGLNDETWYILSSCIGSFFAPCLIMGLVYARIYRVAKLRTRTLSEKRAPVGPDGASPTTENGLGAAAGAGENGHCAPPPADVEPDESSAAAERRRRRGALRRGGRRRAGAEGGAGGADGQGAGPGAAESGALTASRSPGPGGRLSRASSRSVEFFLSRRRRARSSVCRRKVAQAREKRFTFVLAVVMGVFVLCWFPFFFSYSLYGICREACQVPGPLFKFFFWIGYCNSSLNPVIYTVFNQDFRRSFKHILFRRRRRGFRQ

[2] = target: T2, Alpha-2B adrenergic receptor (Homo sapiens, UniProt P18089); assay: Displacement of [3H]RX821002 from human adrenergic alpha-2B receptor expressed in CHO cells; assay type: cell-based
T2 sequence (P18089 whole entry): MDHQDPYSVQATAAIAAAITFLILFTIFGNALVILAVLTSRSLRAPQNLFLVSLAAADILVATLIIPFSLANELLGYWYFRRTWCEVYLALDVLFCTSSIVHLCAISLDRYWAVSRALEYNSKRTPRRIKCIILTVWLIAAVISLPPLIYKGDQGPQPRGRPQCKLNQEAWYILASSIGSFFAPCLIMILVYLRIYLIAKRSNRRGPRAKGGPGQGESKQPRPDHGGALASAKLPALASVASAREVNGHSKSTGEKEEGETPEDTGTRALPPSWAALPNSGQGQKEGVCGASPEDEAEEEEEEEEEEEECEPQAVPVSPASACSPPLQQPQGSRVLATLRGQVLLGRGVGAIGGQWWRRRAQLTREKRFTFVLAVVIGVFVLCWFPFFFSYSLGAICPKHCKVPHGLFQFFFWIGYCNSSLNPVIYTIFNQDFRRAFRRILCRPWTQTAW

[3] = target: T3, Alpha-2A adrenergic receptor (Homo sapiens, UniProt P08913); assay: Displacement of [3H]RX821002 from human adrenergic alpha2A receptor expressed in CHO cells; assay type: cell-based
T3 sequence (P08913 whole entry): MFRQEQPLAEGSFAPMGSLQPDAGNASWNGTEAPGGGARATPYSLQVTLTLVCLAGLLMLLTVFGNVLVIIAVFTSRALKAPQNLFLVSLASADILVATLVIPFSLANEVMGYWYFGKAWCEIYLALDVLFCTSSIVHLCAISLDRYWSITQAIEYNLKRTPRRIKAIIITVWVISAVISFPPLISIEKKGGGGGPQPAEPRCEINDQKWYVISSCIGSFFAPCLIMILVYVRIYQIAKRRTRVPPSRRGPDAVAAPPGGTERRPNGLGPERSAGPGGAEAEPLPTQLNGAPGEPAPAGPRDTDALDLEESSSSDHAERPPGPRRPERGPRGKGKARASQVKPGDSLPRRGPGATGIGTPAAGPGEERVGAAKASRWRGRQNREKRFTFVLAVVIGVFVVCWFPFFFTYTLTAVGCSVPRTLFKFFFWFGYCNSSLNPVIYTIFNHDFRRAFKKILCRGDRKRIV

[4] = target: T1, Alpha-2C adrenergic receptor; assay: (§1) Agonist activity at human adrenergic Alpha-2C receptor expressed in CHO cells assessed as inhibition of forskolin-induced cAMP accumulation; assay type: functional, cell-based
[5] = target: T4, Alpha-2C adrenergic receptor (Homo sapiens) (UniProt P18825); assay: as §1; assay type: functional, cell-based
T4 sequence (whole entry): T1 sequence (P18825 whole entry)

[6] = target: T1, Alpha-2C adrenergic receptor; assay type: functional, cell-based, CHO
Description: Agonist activity at human adrenergic alpha-2C receptor expressed in CHO cells assessed as extracellular acidification by cytosensor microphysiometry

[7] = target: T5, Alpha-2A adrenergic receptor (Homo sapiens) (UniProt P08913); assay: (§2) Agonist activity at human adrenergic alpha-2A receptor expressed in CHO cells assessed as inhibition of forskolin-induced cAMP accumulation; assay type: functional, cell-based
T5 sequence (whole entry): T3 sequence (P08913 whole entry)

[8] = target: T3, Alpha-2A adrenergic receptor; assay type: functional, cell-based, CHO
Description: Agonist activity at human adrenergic alpha-2A receptor expressed in CHO cells assessed as extracellular acidification by cytosensor microphysiometry

[9] = target: T2, Alpha-2B adrenergic receptor; assay: Agonist activity at human adrenergic alpha-2B receptor expressed in CHO cells assessed as extracellular acidification by cytosensor microphysiometry; assay type: functional, cell-based
[10] = target: Nischarin (Homo sapiens, UniProt Q9Y2I1); assay: Binding affinity to imidazoline receptor 1
Sequence of Nischarin (Q9Y2I1 whole entry): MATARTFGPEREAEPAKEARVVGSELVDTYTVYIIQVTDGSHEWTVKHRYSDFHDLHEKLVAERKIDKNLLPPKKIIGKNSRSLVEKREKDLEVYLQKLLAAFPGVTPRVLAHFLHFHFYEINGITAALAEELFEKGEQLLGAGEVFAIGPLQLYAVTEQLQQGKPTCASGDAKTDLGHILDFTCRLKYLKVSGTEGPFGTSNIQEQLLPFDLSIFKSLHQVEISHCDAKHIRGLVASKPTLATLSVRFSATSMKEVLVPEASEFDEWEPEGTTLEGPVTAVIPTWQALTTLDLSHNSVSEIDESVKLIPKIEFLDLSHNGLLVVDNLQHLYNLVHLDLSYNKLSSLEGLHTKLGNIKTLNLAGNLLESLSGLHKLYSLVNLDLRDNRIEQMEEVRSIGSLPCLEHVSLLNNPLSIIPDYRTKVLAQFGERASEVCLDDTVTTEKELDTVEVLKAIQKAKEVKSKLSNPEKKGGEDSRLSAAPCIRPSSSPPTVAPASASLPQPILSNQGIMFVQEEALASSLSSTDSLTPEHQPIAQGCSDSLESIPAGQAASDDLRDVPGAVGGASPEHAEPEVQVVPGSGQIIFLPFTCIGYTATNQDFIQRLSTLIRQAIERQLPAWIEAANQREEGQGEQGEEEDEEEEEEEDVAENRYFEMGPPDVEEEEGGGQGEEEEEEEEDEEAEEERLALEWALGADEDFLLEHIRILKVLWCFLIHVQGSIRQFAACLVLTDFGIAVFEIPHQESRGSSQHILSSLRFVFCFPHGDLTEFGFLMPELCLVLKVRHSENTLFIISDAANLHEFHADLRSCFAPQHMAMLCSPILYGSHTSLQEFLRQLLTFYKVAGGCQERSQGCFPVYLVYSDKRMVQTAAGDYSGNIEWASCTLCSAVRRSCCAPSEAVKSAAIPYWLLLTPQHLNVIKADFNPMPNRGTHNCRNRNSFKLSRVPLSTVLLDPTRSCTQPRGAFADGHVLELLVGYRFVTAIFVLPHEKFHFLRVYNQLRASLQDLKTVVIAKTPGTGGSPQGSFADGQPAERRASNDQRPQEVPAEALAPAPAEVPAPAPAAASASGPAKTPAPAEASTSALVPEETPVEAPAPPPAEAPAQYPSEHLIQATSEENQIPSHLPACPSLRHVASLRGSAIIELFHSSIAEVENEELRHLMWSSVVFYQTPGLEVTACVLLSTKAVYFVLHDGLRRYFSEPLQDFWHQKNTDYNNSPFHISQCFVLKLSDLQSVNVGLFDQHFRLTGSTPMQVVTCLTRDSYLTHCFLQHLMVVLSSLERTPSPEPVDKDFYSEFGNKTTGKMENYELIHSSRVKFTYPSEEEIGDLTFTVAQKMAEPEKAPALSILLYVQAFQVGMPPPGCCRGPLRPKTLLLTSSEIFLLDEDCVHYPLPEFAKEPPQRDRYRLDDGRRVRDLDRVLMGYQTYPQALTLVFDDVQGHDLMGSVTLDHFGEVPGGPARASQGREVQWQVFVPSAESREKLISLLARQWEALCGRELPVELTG

[11] = target: T3, Alpha-2A adrenergic receptor; assay: as §2; assay type: functional, cell-based

With `CC(Oc1ccccc1-c1ccc([N+](=O)[O-])cc1)C1=NCCN1` (stereo unspecified) the Ki [1] was 302 nM, the Ki [2] was 501 nM and the Ki [3] was 123 nM.

For `CC(Sc1ccccc1-c1ccccc1)C1=NCCN1` (stereo unspecified), the Ki [1] was 708 nM, the Ki [2] was 3550 nM and the Ki [3] was 339 nM.

`CC(Oc1ccccc1-c1cccc([N+](=O)[O-])c1)C1=NCCN1` (stereo unspecified) was tested, and the Ki [1] was 234 nM, the EC50 [4] was 158 nM and the Intrinsic activity [5] was 0.6. It also gave a Ki [2] of 661 nM, an EC50 [6] of 100 nM and a Ki [3] of 60.3 nM. The Activity [7] was “inactive”.

`CC(Oc1ccccc1-c1ccccc1)C1=NCCC1` (stereo unspecified) showed a Ki [1] of 5890 nM, a Ki [2] of 10000 nM and a Ki [3] of 8130 nM.

For `CC(Oc1ccccc1-c1cccc(N)c1)C1=NCCN1` (stereo unspecified), the Ki [1] was 309 nM, the Ki [2] was 479 nM and the EC50 [6] was 501 nM. For the same compound, the Ki [3] was 37.2 nM and the EC50 [8] was 257 nM.

`Cc1ccccc1-c1ccccc1OC(C)C1=NCCN1` (stereo unspecified) gave a Ki [1] of 234 nM, a Ki [2] of 832 nM and an EC50 [6] of 363 nM. The Ki [3] was 46.8 nM.

In the case of `CC(Oc1ccccc1-c1ccccc1)C1=NCCN1` (stereo unspecified) [BIPHENYLINE], the Ki [1] is reported as 200 nM, the Ki [2] is reported as 501 nM and the EC50 [6] is reported as 57.5 nM. For the same compound, the Ki [3] was 47.9 nM, the EC50 [9] was 646 nM and the EC50 [8] was 115 nM. It also gave a Ki [10] of 126 nM.

Work on `CC(Oc1ccccc1-c1ccccn1)C1=NCCN1` (stereo unspecified) yielded a Ki [1] of 1260 nM, a Ki [2] of 3310 nM and a Ki [3] of 1200 nM.

In the case of `CC(Oc1ccccc1-c1ccccc1O)C1=NCCN1` (stereo unspecified), the Ki [1] is reported as 1620 nM, the Ki [2] is reported as 1000 nM and the Ki [3] is reported as 309 nM.

With `CC(Nc1ccccc1-c1ccccc1)C1=NCCN1` (stereo unspecified) the Ki [1] was 708 nM, the Ki [2] was 1150 nM and the EC50 [6] was 93.3 nM. The Ki [3] was 91.2 nM, the EC50 [9] was 3800 nM and the EC50 [8] was 389 nM.

`Cc1ccc(-c2ccccc2OC(C)C2=NCCN2)cc1` (stereo unspecified) was tested, and the Ki [1] was 251 nM, the Ki [2] was 398 nM and the EC50 [6] was 832 nM. The Ki [3] was 41.7 nM.

Work on `Cc1cccc(-c2ccccc2OC(C)C2=NCCN2)c1` (stereo unspecified) yielded a Ki [1] of 245 nM, a Ki [2] of 537 nM and an EC50 [6] of 1580 nM. For the same compound, the Ki [3] was 51.3 nM.

`CC(Oc1ccccc1-c1ccccc1)C1=NCCO1` (stereo unspecified) showed a Ki [1] of 5890 nM, a Ki [2] of 10000 nM and a Ki [3] of 8130 nM.

With `CC(Oc1ccccc1-c1cccc(F)c1)C1=NCCN1` (stereo unspecified) the Ki [1] was 17 nM, the Ki [2] was 269 nM and the EC50 [6] was 60.3 nM. For the same compound, the Ki [3] was 14.8 nM and the EC50 [8] was 105 nM.

With `c1ccc(-c2ccccc2C2OC2C2=NCCN2)cc1` (cis isomer) the Ki [1] was 6460 nM, the Ki [2] was 20000 nM and the EC50 [6] was 2690 nM. The Ki [3] was 1230 nM and the EC50 [8] was 3470 nM.

Work on `CC(Oc1ccccc1-c1ccsc1)C1=NCCN1` (stereo unspecified) yielded a Ki [1] of 132 nM, a Ki [2] of 417 nM and an EC50 [6] of 93.3 nM. For the same compound, the Ki [3] was 45.7 nM and the EC50 [8] was 75.9 nM.

Compound `CC(Oc1ccccc1-c1cccc(O)c1)C1=NCCN1` (stereo unspecified) has a Ki [1] of 17.8 nM, a Ki [2] of 355 nM and an EC50 [6] of 46.8 nM. It also gave a Ki [3] of 27.5 nM and an EC50 [9] of 5250 nM.

Work on `CC(Oc1ccccc1-c1ccncc1)C1=NCCN1` (stereo unspecified) yielded a Ki [1] of 1450 nM, a Ki [2] of 2690 nM and a Ki [3] of 282 nM.

`c1ccc(-c2ccccc2C2OC2C2=NCCN2)cc1` (stereo unspecified) showed a Ki [1] of 4270 nM, a Ki [2] of 1230 nM and a Ki [3] of 1510 nM.

In the case of `CC(Oc1ccccc1-c1ccc(O)cc1)C1=NCCN1` (stereo unspecified), the Ki [1] is reported as 331 nM, the Ki [2] is reported as 813 nM and the Ki [3] is reported as 33.9 nM.

In the case of `CC(Oc1ccccc1-c1cccnc1)C1=NCCN1` (stereo unspecified), the Ki [1] is reported as 64.6 nM, the EC50 [4] is reported as 39.8 nM and the Intrinsic activity [5] is reported as 1. The Ki [2] was 933 nM, the EC50 [6] was 50.1 nM and the Ki [3] was 138 nM. It also gave an EC50 [9] of 1000 nM, an EC50 [11] of 589 nM and an Intrinsic activity [7] of 0.5. It also gave an EC50 [8] of 316 nM.

`CC(Oc1ccccc1-c1cccs1)C1=NCCN1` (stereo unspecified) was tested, and the Ki [1] was 72.4 nM, the Ki [2] was 214 nM and the EC50 [6] was 58.9 nM. For the same compound, the Ki [3] was 17 nM, the EC50 [9] was 1000 nM and the EC50 [8] was 41.7 nM.

Compound `CC(Oc1ccccc1-c1ccccc1)C1=NCCS1` (stereo unspecified) has a Ki [1] greater than 10000 nM, a Ki [2] greater than 10000 nM and a Ki [3] greater than 10000 nM.

`CC(Oc1ccccc1-c1ccccc1[N+](=O)[O-])C1=NCCN1` (stereo unspecified) was tested, and the Ki [1] was 1230 nM, the Ki [2] was 1550 nM and the Ki [3] was 174 nM.
